# According to publication PMC6849653, “Volasertib preclinical activity in high-risk hepatoblastoma” (Oncotarget, 2019):
# “Also recorded” adds a separate entry of the source. Like-named read-outs stand apart in the source and are kept apart here.
# What was measured:
# [1] = test system: SK-Hep1; design: method as in PMID 27904765; conditions: hepatocellular carcinoma cell line; cited from earlier work
# [2] = test system: SMMC7721; design: method as in PMID 27904765; conditions: hepatocellular carcinoma cell line; cited from earlier work
# [3] = test system: HB-295; test: Cell proliferation study, HB-295; format: cell-based, human; conditions: 72 h drug exposure, Cell-Titer Glo, average of quadruplicates, read-out: absolute IC50, HB-295
# Experimental: (§1) On day 0, cells were trypsinized and plated into white walled 384-well plates. On day 1, when cells were 70% confluent, volasertib (S2235, SelleckChem, Houston, TX), SN38 (S4908, SelleckChem) or vincristine (S1241, SelleckChem) suspended in DMSO were added to plates using a Tecan D300e drug printer (Tecan Life Sciences, Switzerland), ensuring less than 1% DMSO. […] Absolute IC50 values were calculated using GraphPad Prism (GraphPad, San Diego, CA). Synergy values were calculated using CalcuSyn (Biosoft, Cambridge, UK) software.
# [4] = test system: HepG2; test: 60-agent chemical screen, cell viability (Cell-Titer Glo), HepG2; format: cell-based; conditions: Homo sapiens, 60-agent screen, 72 hours, a value of 10,000 indicates that the drug did not inhibit viability, read-out: absolute IC50, HepG2;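 also: luminescence read-out in 384-well plates, with cells plated directly onto drug dilutions of known concentration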
# Experimental: (§2) On day 0, cells were trypsinized and plated into a white walled 384-well plate containing pre-diluted known concentrations of various drugs. After 72 hours, an equal volume of Cell-Titer Glo 2.0 (G9243, Promega) was added to each well, incubated at room temperature while rocking in the dark for 15 minutes, followed by luminescence acquisition with a BioTek Synergy HT plate reader (BioTek, Winooski, VT).
# [5] = test system: normal human hepatocytes; test: 60-agent chemical screen, cell viability (Cell-Titer Glo), hepatocytes; format: cell-based; conditions: Hepatocyte;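 also: cells were plated onto pre-diluted drug concentrations in 384-well plates, and viability was read after 72 h as CellTiter-Glo 2.0 luminescence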
# Experimental: as §2
# [6] = test system: HB-279; test: Cell cycle analysis by flow cytometry (PI staining), HB-279; format: cell-based, human; conditions: for Percent of cells in S phase / Percent of cells in G2/M / Percent of cells in G1: HB-279, 72 hour treatment, 150 nM volasertib, 3 nM SN38, N=3; for Percent of cells in S phase: DMSO 16.1; for Percent of cells in G2/M: DMSO 26.8; for Percent of cells in G1: DMSO 56.5; for cell cycle arrest as compared to vehicle control: clinically achievable concentrations, 72 hours
# Experimental: After a 72-hour drug treatment, cells were collected and fixed in ice cold 70% ethanol. After rehydration, cells were stained using the Guava Cell Cycle Reagent for Flow Cytometer (4500-0220, MilliporeSigma, Germany) according to the product protocol. Cells were analyzed for propidium iodide using the Guava EasyCyte 8HT (MilliporeSigma). Flow data was analyzed using CytoBank software (Cytobank, Santa Clara, CA).
# [7] = test system: Huh-6; test: 60-agent chemical screen, cell viability (Cell-Titer Glo), Huh-6; format: cell-based; conditions: Homo sapiens, 60-agent screen, 72 hours, a value of 10,000 indicates that the drug did not inhibit viability, read-out: absolute IC50, Huh-6
# Experimental: as §2
# [8] = test system: HB-282; test: Cell proliferation study, HB-282; format: cell-based, human; conditions: 72 h drug exposure, Cell-Titer Glo, average of quadruplicates, read-out: absolute IC50, HB-282
# Experimental: as §1
# [9] = test system: HB-214 PDX; test: HB-214 hepatoblastoma PDX in athymic nude mice; format: in vivo; conditions: volasertib 30 mg/kg IV 2qwk, irinotecan 10 mg/kg IP q5d, alone or combined; 6 mice per group
# Experimental: These fragments were engrafted in the interscapular region of 6-8 week-old female athymic nude mice (Athymic NudeFoxn1^nu, ENVIGO, Gannat, France). After latency period, mice with a subcutaneously growing tumor between 62 and 256 mm^3 were allocated to each treatment arm according to their tumor volume to obtain homogenous mean and median tumor volume in each arm. Treatments were randomly attributed to boxes housing up to five mice. […] Tumor volume (TV) was evaluated by caliper measurement, 2 or 3 times a week during latency and treatment period. The formula Total Volume (TV) (mm^3) = [length (mm) x width (mm)^2]/2 was used, where the length and the width are the longest and the shortest diameters of the tumor. The tumor growth delay index (TGDI) was calculated as the median growth delay in the treated group divided by the median growth delay in the control group, and represented the x-fold time to reach 5-fold the TV at D0.The ratio between the mean TV of a treated group (T) and the mean TV of the control group (C) was calculated at each measurement, and represented the antitumoral activity of the tested compound(s). The tumor growth rate, evaluated by the formula [DT/T0]-1 where DT is the delta of tumor size between the considered day and the day of enrolment and T0 is mean TV at D0, gives the percentage of growth compared with the initial day. […]
# [10] = cited from earlier work
# [11] = test system: HB-214; test: Cell proliferation study, HB-214; format: cell-based; conditions: Homo sapiens; 72 h drug exposure, Cell-Titer Glo, average of quadruplicates; read-out: absolute IC50, HB-214
# Experimental: as §1
# [12] = test system: PLK2; design: method as in PMID 19383823; conditions: read-out: cell-free enzyme IC50, PLK2; cited from earlier work
# [13] = test system: HB-284; test: Cell proliferation study, HB-284; format: cell-based, human; conditions: 72 h drug exposure, Cell-Titer Glo, average of quadruplicates, read-out: absolute IC50, HB-284
# Experimental: as §1
# [14] = test system: PLK3; design: method as in PMID 19383823; conditions: read-out: cell-free enzyme IC50, PLK3; cited from earlier work
# [15] = test system: hepatoblastoma cell lines HepG2, Huh-6 and HB-214 versus hepatocytes; test: 60-agent chemical screen, hepatoblastoma cell lines taken together / versus hepatocytes
# Experimental: as §2
# [16] = volasertib; cited from earlier work
# [17] = test system: HB-279; test: Cell proliferation study, HB-279; format: cell-based, human; conditions: 72 h drug exposure, Cell-Titer Glo, average of quadruplicates, read-out: absolute IC50, HB-279
# Experimental: as §1
# [18] = test system: PLK1; design: method as in PMID 19383823; conditions: read-out: cell-free enzyme IC50, PLK1; cited from earlier work
# [19] = test system: six hepatoblastoma cell cultures; test: Cell proliferation study, six hepatoblastoma cell cultures together; format: cell-based, human
# Experimental: as §1
# [20] = test system: HB-214; test: 60-agent chemical screen, cell viability (Cell-Titer Glo), HB-214; format: cell-based; conditions: Homo sapiens; 60-agent screen, 72 hours; a value of 10,000 indicates that the drug did not inhibit viability; read-out: absolute IC50, HB-214;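 also: viability read as luminescence once Cell-Titer Glo 2.0 reagent was added to drug-treated cells in 384-well plates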
# Experimental: as §2
# [21] = test system: HB-243; test: Cell proliferation study, HB-243; format: cell-based, human; conditions: 72 h drug exposure, Cell-Titer Glo, average of quadruplicates, read-out: absolute IC50, HB-243
# Experimental: as §1
smiles,measurement,setting,value
CC[C@@H]1C(=O)N(C)c2cnc(Nc3ccc(C(=O)N[C@H]4CC[C@H](N5CCN(CC6CC6)CC5)CC4)cc3OC)nc2N1C(C)C [volasertib],IC50,[1],7020 nM
same,IC50,[2],3970 nM
same,IC50,[3]; Homo sapiens,1170 nM
same,IC50,[4],528 nM
same,IC50,"[5]; as restated in the discussion, read-out: IC50, normal hepatocytes",> 10000 nM
same,Percent of cells in S phase,[6],14.2%
same,Percent of cells in G2/M,[6],40.7%
same,Percent of cells in G1,[6],44.7%
same,cell cycle arrest as compared to vehicle control,[6],cell cycle arrest in G2/M
same,IC50,[7],3820 nM
same,IC50,[8]; Homo sapiens,2130 nM
same,tumor growth (mean tumor volume over time),[9],appreciable and cytostatic; also recorded: slowed
same,Cmax,[10]; measured in clinical trials,1220 nM
same,IC50,[11],725 nM
same,IC50,[12],5 nM
same,IC50,[13]; Homo sapiens,3300 nM
same,IC50,[14],56 nM
same,IC50,"[15]; Homo sapiens, Hepatocyte, read-out: IC50, cancer cells",360 to 528 nM
same,side effects,[16],neutropenia and anemia
same,IC50,[17]; Homo sapiens,2020 nM
same,IC50,[18],0.87 nM
same,IC50,"[19]; Homo sapiens, range over HB-214, HB-243, HB-279, HB-282, HB-284, HB-295, read-out: IC50 across all six hepatoblastoma cell cultures",< 10000 nM
same,IC50,[20],360 nM
same,IC50,[21]; Homo sapiens,252 nM
CCc1c2c(nc3ccc(O)cc13)-c1cc3c(c(=O)n1C2)COC(=O)[C@]3(O)CC [SN38],IC50,[3],500 nM
same,Percent of cells in S phase,[6],17.7%
same,Percent of cells in G2/M,[6],34.3%
same,Percent of cells in G1,[6],47.6%
same,cell cycle arrest as compared to vehicle control,[6],modest G2/M phase arrest
same,IC50,[8],26 nM
same,AUC0-∞,"[10]; SN38, pediatric study",0.214 µM·h
same,Cmax,[10]; SN38 from clinical trials,120 nM
same,IC50,[13],210 nM
same,IC50,[17],200 nM
same,IC50,[21],160 nM
CC[C@]1(O)C[C@H]2CN(CCc3c([nH]c4ccccc34)[C@@](C(=O)OC)(c3cc4c(cc3OC)N(C=O)[C@H]3[C@@](O)(C(=O)OC)[C@H](OC(C)=O)[C@]5(CC)C=CCN6CC[C@]43[C@@H]65)C2)C1 [vincristine],Cmax,[10]; published Cmax of vincristine,90 nM
same,sensitivity of hepatoblastoma cell lines to vincristine,"[19]; 72hr drug exposure, Supplementary Figure 4",Several cell lines were highly resistant
CC(=O)Nc1cccc(-n2c(=O)n(C3CC3)c(=O)c3c(Nc4ccc(I)cc4F)n(C)c(=O)c(C)c32)c1 [trametinib],IC50,[4],> 10000 nM
same,IC50,"[5]; 60-agent screen, 72 hours, a value of 10,000 indicates that the drug did not inhibit viability, read-out: absolute IC50, Hepatocytes",> 10000 nM
same,IC50,[7],> 10000 nM
same,effectiveness across the three hepatoblastoma cell lines,[15]; 60-agent screen,only effective in one cell line out of three
same,IC50,[20],210 nM
